Counter-ions that a name gives are not always drawn.
Legend:
HT-29 cells = assay: ECtfs (Two-Fold Sensitization) Assay, 3H-thymidine incorporation; assay type: cell-based
Procedure: The capacity for continued tumor cell proliferation after DNA damage can be analyzed by determining the ability of cells to replicate their DNA. […] Following a recovery period, cells are assayed for the ability to incorporate radioactive thymidine into DNA during S phase. The ECtfs parameter is a measure of the concentration of a Chk1 inhibitor necessary to reduce by half the GI90 concentration of gemcitabine, measured in this assay in the absence of Chk1 inhibition. […] These cells are plated at 1.3×10^3 per well on Corning Costar 96-well tissue culture plates. After plating the cells, the tissue culture plates are held at room temperature for 45 minutes, before returning to 37° C. Plates are incubated for 24 hours prior to gemcitabine addition. Before gemcitabine addition, medium is removed from all wells and replaced with 150 μL per well of fresh RPMI medium. Gemcitabine stocks at 10 mM are prepared in phosphate-buffered saline. Gemcitabine dilutions were prepared at 4× concentrations in RPMI medium and added to wells at 50 μL per well. The highest final concentration of gemcitabine used is 80 μM and dilutions proceed by four-fold steps. Two hours later, gemcitabine-containing medium is removed from the wells and replaced with 150 μL per well of fresh RPMI medium. […] The volume of addition is 50 μL. Compound dilutions proceed by two-fold steps, starting at 5000 nM. […] 20 μL of this solution is added to each well, yielding 1 μCi/well of ^3H-thymidine. Cells are labeled for twenty-two hours. The medium containing ^3H-thymidine is thoroughly removed from the wells. The plates are then frozen at −20° C., for several hours. To harvest the DNA containing incorporated ^3H-thymidine, plates are thawed for several minutes, and then 120 μL per well of 0.1 N NaOH is added to each well. Each plate is then incubated at 37° C., with slow mixing on a rotator, for 10 minutes. […] The wells of the tissue culture plate on which cells had been labeled are washed with water 5×. The Unifilter plate membranes are washed with an additional 4.5 mL per well (3×1.0 mL and finally a 1.5 mL wash). The Unifilter plates are then dried at 37° C. for at least 6 hours. The bottom of each filter plate was sealed with a Backseal adhesive sheet (PerkinElmer), and the 50 μL/well of MicroScint-20 (Perkin Elmer) is added. Each plate is then sealed with a Topseal clear adhesive sheet (PerkinElmer). Plates are counted on a Topcount scintillation counter (PerkinElmer), at 1 minute per well. ^3H-thymidine counts per minute (cpm) are exported into Prism (GraphPad) for analysis and plotting. […] For plotting the data in Prism, the gemcitabine concentrations are transformed to log values, and dose-response curves are fit by non-linear regression. Neither top nor bottom fits are constrained.

[1] = system: Calu-6 lung tumor xenograft; assay: Human Tumor Xenograft Model, Calu-6 lung; assay type: in vivo, nude mice; details: Calu-6 xenograft
Procedure: (§1) The ability of Chk1 inhibitors to effect tumor killing can be determined in vivo using the Calu-6 lung and HT-29 colon tumor xenograft efficacy models. Calu-6 lung cancer cells (ATCC) are cultured in growth media (MEM w/Earle's salts (Invitrogen) with L-glutamine (Gibco™) supplemented with 10% (v/v) heat inactivated FBS (Gibco™), 1×MEM non-essential amino acids (Gibco™), 1× sodium pyruvate (Gibco™)) and HT-29 colon cancer cells (ATCC) are cultured in growth media, (McCoy's 5A medium (Gibco™) supplemented with 10% FBS (Gibco™)) and expanded. Cells are harvested and washed twice with phosphate buffered saline and 5×10^6 cells (HT-29) or 1×10^6 cells (Calu-6) in growth media (without serum) are mixed with equal volume of BD Matrigel™ matrix (BD Bioscience, Franklin, N.J.), then injected subcutaneously into the flank of nude mice (CD-1 nu/nu, from Charles River Labs, Wilmington, Mass.). At about day 16 after implant (150-200 mm^3), gemcitabine is formulated fresh in saline daily and administered to animals by intraperitoneal route at 60 mg/kg dose. […] Tumor response is determined by tumor volume measurement performed twice a week during the course of treatment. Tumor growth inhibition (TGI) is calculated as the percent reduction in mean tumor size of a compound treated group from the mean tumor size of the vehicle-treated control group.

[2] = system: HT-29 colon tumor xenograft; assay: Human Tumor Xenograft Model, HT-29 colon; assay type: in vivo, nude mice; details: HT-29 xenograft
Procedure: as §1

Calu-6 lung xenograft = assay: Single Agent Efficacy Dosing, Calu-6 lung xenograft; assay type: in vivo, nude mice; details: 15 mg/kg subcutaneously, BID×5 rest 2 days, ×3 cycles
Procedure: The ability of Chk1 inhibitors to effect tumor killing can be determined in vivo using the Calu-6 lung xenograft efficacy model. Calu-6 lung cancer cells (ATCC) are cultured as described above. Cells are harvested and washed twice with phosphate buffered saline and 1×10^6 cells (Calu-6) in growth media (without serum) are mixed with equal volume of BD Matrigel™ matrix (BD Bioscience, Franklin, N.J.), then injected subcutaneously into the flank of nude mice (CD-1 nu/nu, from Charles River Labs, Wilmington, Mass.).

[3] = system: Thirty solid tumor cell lines; assay: Monolayer Proliferation and Cytotoxicity Assay (modified propidium iodide assay, Oncotest); assay type: cell-based; details: 96 h; majority of thirty solid tumor cell lines, 4 days of treatment; read-out: EC50 (growth inhibition of tumor cell lines)
Excerpt: One measure of potency of a Chk1 inhibitor is its ability to inhibit the proliferation of cancer cells in culture due to uncontrolled replication origin activation. (Conti et al. Cell Cycle 6: 2760-2767, 2007) Determination of Chk1 inhibitor antiproliferative activity in cell lines derived from a broad range of tumor types is indicative of which tumor types may be clinically responsive to chemotherapy with Chk1 inhibitors. The following described cellular proliferation assay is run at Oncotest, GmbH in Germany. Thirty solid tumor cell lines are derived from 13 different tumor histotypes, each represented by 1 to 6 different cell lines (Oncotest, GmbH). […] Briefly, adherent cells are harvested from exponential phase cultures by trypsinization, counted and plated in 96 well flat-bottomed microtiter plates at a cell density depending on the cell line (4.000-20.000 cells/well). […] Finally, PI fluorescence is measured using the Cytofluor 4000 microplate reader (excitation λ=530 nm, emission λ=620 nm) to determine the total viable cell number. Growth inhibition is expressed as Test/Control×100 (% T/C) values. Based on the T/C values, relative IC50 values are determined using non-linear regression (log [conc. of inhibitor] versus response (% T/C)).

[4] = stated jointly for both HT-29 and Calu-6 models

Structure (SMILES): COc1cccc(OCCCN)c1-c1cc(Nc2cnc(C#N)cn2)n[nH]1 [Example 2, 5-(5-(2-(3-Aminopropoxy)-6-methoxyphenyl)-1H-pyrazol-3-ylamino)pyrazine-2-carbonitrile dihydrogen chloride salt]
- decrease of the EC50 of gemcitabine (HT-29 cells; 3 nM of the compound of Example 2, HT29 colon carcinoma cells): 7 fold
- ECtfs value (HT-29 cells; concentration of Chk1 inhibitor necessary to reduce by half the GI90 concentration of gemcitabine, HT-29 cells): 0.3 nM
- anti-tumor activity ([1]; dosed alone and in combination with gemcitabine 60 mg/kg, intravenous, Q3Dx4): excellent dose dependent anti-tumor activity
- increase in tumor growth inhibition over gemcitabine alone [1, 4]: six-fold
- anti-tumor activity ([2]; dosed alone and in combination with gemcitabine 60 mg/kg, intraperitoneal, Q3Dx4): excellent dose dependent anti-tumor activity
- increase in tumor growth inhibition over gemcitabine alone [2, 4]: six-fold
- growth inhibition compared with the gemcitabine plus compound combination schedule (Calu-6 lung xenograft): superior growth inhibition
- tumor regression (Calu-6 lung xenograft): Complete tumor regression is rapid and durable
- EC50 [3]: < 0.02 µM

Structure (SMILES): Nc1ccn([C@@H]2O[C@H](CO)[C@@H](O)C2(F)F)c(=O)n1 [gemcitabine, reference compound]
- EC50 (HT-29 cells; Homo sapiens, HT-29, gemcitabine alone, HT29 colon carcinoma cells): 0.037 µM
- percentage of proliferation inhibition (HT-29 cells; gemcitabine alone, HT29 cells): 52%

From US8314108B2, “5-(5-(2-(3-aminopropoxy)-6-methoxyphenyl)-1H-pyrazol-3-ylamino)pyrazine-2-carbonitrile, pharmaceutically acceptable salts thereof, or solvate of salts” (Eli Lilly and Company, priority 2008, dated 2012)
